Reference: patent US9062078B2, “Substituted 7-azabicyles and their use as orexin receptor modulators” (priority 2013, dated 2015)
Read-outs that look alike come from different tables or passages of the source.

What was measured:
human orexin 1 receptor = human orexin 1 receptor (Homo sapiens (Human), UniProt O43613); experiment: Human orexin 1 receptor radioligand binding (competitive, [3H]-SB674042, CHO cell preparations); details: human orexin 1 receptor, [3H]-SB674042 competition binding; read-out: hOX1 Ki (nm)
human orexin 2 receptor = human orexin 2 receptor (Homo sapiens (Human), UniProt O43614); experiment: Human orexin 2 receptor radioligand binding (competitive, [3H]-EMPA, HEK293 cell preparations)
rat orexin 1 receptor = rat orexin 1 receptor (Rattus norvegicus, UniProt P56718); experiment: Rat orexin 1 receptor radioligand binding (competitive, [3H]-SB674042, HEK293 cell preparations)
[1] = human orexin 2 receptor, [3H]-EMPA competition binding, read-out: hOX2 Ki (nm)
[2] = rat orexin 1 receptor, [3H]-SB674042 competition binding, read-out: rOX1 Ki (nm)

Chain of human orexin 2 receptor (O43614 whole entry): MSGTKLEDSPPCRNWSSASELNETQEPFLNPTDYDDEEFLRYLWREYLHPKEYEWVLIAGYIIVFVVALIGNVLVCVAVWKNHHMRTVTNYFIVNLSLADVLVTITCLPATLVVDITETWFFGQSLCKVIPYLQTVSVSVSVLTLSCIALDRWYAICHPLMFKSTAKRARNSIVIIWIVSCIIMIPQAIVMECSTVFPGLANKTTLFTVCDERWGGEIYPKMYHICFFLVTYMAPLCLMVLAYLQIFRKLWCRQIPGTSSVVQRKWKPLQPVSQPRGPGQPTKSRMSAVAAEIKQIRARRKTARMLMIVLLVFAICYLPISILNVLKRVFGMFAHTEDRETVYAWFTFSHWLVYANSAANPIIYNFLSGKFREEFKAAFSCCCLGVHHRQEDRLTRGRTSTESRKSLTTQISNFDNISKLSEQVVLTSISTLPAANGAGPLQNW
Chain of human orexin 1 receptor (O43613 whole entry): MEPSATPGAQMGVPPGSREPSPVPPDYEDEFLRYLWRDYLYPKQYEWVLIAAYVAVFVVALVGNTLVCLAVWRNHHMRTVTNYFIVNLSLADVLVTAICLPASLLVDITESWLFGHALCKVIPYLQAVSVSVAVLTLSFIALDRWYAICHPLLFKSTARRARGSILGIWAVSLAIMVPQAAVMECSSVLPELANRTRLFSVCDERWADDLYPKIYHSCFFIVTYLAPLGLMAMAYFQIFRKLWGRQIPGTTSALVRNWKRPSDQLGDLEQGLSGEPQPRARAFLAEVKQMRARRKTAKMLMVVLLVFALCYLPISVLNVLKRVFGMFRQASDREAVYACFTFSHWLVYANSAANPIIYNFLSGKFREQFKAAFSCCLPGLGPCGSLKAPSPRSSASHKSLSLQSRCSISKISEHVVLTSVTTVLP

Row | Structure (SMILES) | Ki (human orexin 1 receptor) | Ki (human orexin 2 receptor; [1]) | Ki (rat orexin 1 receptor; [2]) | Ki (human orexin 2 receptor; hOX2 Ki (nm)) | Ki (rat orexin 1 receptor; rOX1 Ki (nm))
1 | O=C(c1cc(F)ccc1-n1nccn1)N1C2CCC1C(CNc1nccc(C(F)(F)F)n1)C2 (racemic) [Example 171, (±)-(5-fluoro-2-(2H-1,2,3-triazol-2-yl)phenyl)(2-(((4-(trifluoromethyl)pyrimidin-2-yl)amino)methyl)-7-azabicyclo[2.2.1]heptan-7-yl)methanone] | 1.93 µM | – | – | – | –
2 | O=C(c1cccc(F)c1-c1ncccn1)N1C2CCC1C(Oc1ncc(C(F)(F)F)cn1)C2 (racemic) [Example 286, (±)-(3-fluoro-2-(pyrimidin-2-yl)phenyl)(2-((5-(trifluoromethyl)pyrimidin-2-yl)oxy)-7-azabicyclo[2.2.1]heptan-7-yl)methanone] | – | > 10 µM | > 10 µM | – | –
3 | Cc1ccc(-c2ncccn2)c(C(=O)N2[C@H]3CC[C@@H]2[C@@H](COc2ccccn2)C3)n1 (single isomer, unassigned) [Example 3B, (6-methyl-3-(pyrimidin-2-yl)pyridin-2-yl)((1R*,2S*,4S*)-2-((pyridin-2-yloxy)methyl)-7-azabicyclo[2.2.1]heptan-7-yl)methanone] | – | – | – | > 10 µM | > 10 µM
4 | COc1c(F)cccc1C(=O)N1C2CCC1C(Nc1cnc3ccccc3n1)C2 (single isomer, unassigned) [Example 206, (±)-(3-fluoro-2-methoxyphenyl)(2-(quinoxalin-2-ylamino)-7-azabicyclo[2.2.1]heptan-7-yl)methanone] | – | 1.5 µM | 1.2 µM | – | –
5 | CCOc1ccc(C)nc1C(=O)N1C2CCC1C(Nc1ncc(C(F)(F)F)cn1)C2 (single isomer, unassigned) [Example 224, (±)-(3-ethoxy-6-methylpyridin-2-yl)(2-(5-(trifluoromethyl)pyrimidin-2-yl)amino)-7-azabicyclo[2.2.1]heptan-7-yl)methanone] | – | 7.4 µM | 2.5 µM | – | –
6 | CCOc1ccc(C)nc1C(=O)N1C2CCC1C(Nc1ncc(C(F)(F)F)cn1)C2 (single isomer, unassigned) [Example 227, (±)-(3-ethoxy-6-methylpyridin-2-yl)(2-(5-(trifluoromethyl)pyrimidin-2-yl)amino)-7-azabicyclo[2.2.1]heptan-7-yl)methanone] | – | > 10 µM | > 10 µM | – | –
7 | CCOc1ccc(C)nc1C(=O)N1C2CCC1C(Nc1cnc3ccccc3n1)C2 (single isomer, unassigned) [Example 229, (±)-(3-ethoxy-6-methylpyridin-2-yl)(2-(quinoxalin-2-ylamino)-7-azabicyclo[2.2.1]heptan-7-yl)methanone] | – | > 10 µM | > 10 µM | – | –
8 | COc1c(F)cccc1C(=O)N1C2CCC1C(Nc1cnc3ccccc3n1)C2 (single isomer, unassigned) [Example 231, (±)-(3-fluoro-2-methoxyphenyl)(2-(quinoxalin-2-ylamino)-7-azabicyclo[2.2.1]heptan-7-yl)methanone] | – | > 10 µM | > 10 µM | – | –
9 | O=C(c1cccc(F)c1-c1ncccn1)N1C2CCC1C(Oc1ncc(C(F)(F)F)cn1)C2 (single isomer, unassigned) [Example 285, (±)-(3-fluoro-2-(pyrimidin-2-yl)phenyl)(2-(5-(trifluoromethyl)pyrimidin-2-yl)oxy)-7-azabicyclo[2.2.1]heptan-7-yl)methanone] | – | > 10 µM | 0.72 µM | – | –
10 | Cc1coc(-c2ccc(C)nc2C(=O)N2[C@@H]3CC[C@H]2[C@H](COc2ccccn2)C3)n1 [Example 178, (6-methyl-3-(4-methyloxazol-2-yl)pyridin-2-yl)((1S,2R,4R)-2-((pyridin-2-yloxy)methyl)-7-azabicyclo[2.2.1]heptan-7-yl)methanone] | – | > 10 µM | 0.964 µM | – | –
11 | O=C(c1cncc2ccccc12)N1[C@@H]2CC[C@H]1[C@H](Nc1cnc(C(F)(F)F)cn1)C2 [Example 240, isoquinolin-4-yl((1S,2R,4R)-2-((5-(trifluoromethyl)pyrazin-2-yl)amino)-7-azabicyclo[2.2.1]heptan-7-yl)methanone] | – | 2.1 µM | 0.4 µM | – | –
12 | Cc1ccc(C(=O)N2[C@@H]3CC[C@H]2[C@H](Nc2cnc(C(F)(F)F)cn2)C3)c(-n2nccn2)n1 [Example 247, (6-methyl-2-(2H-1,2,3-triazol-2-yl)pyridin-3-yl)((1S,2R,4R)-2-((5-(trifluoromethyl)pyrazin-2-yl)amino)-7-azabicyclo[2.2.1]heptan-7-yl)methanone] | – | 1.13 µM | 0.42 µM | – | –
13 | O=C(c1nc2ccccc2[nH]1)N1[C@@H]2CC[C@H]1[C@H](Nc1cnc(C(F)(F)F)cn1)C2 [Example 250, (1H-benzo[d]imidazol-2-yl)((1S,2R,4R)-2-((5-(trifluoromethyl)pyrazin-2-yl)amino)-7-azabicyclo[2.2.1]heptan-7-yl)methanone] | – | > 10 µM | 5.65 µM | – | –
14 | Cn1c(C(=O)N2[C@@H]3CC[C@H]2[C@H](Nc2cnc(C(F)(F)F)cn2)C3)nc2ccccc21 [Example 251, (1-methyl-1H-benzo[d]imidazol-2-yl)((1S,2R,4R)-2-((5-(trifluoromethyl)pyrazin-2-yl)amino)-7-azabicyclo[2.2.1]heptan-7-yl)methanone] | – | 5.3 µM | 0.52 µM | – | –
15 | Cc1nc2sccn2c1C(=O)N1[C@@H]2CC[C@H]1[C@H](Nc1cnc(C(F)(F)F)cn1)C2 [Example 259, (6-methylimidazo[2,1-b]thiazol-5-yl)((1S,2R,4R)-2-((5-(trifluoromethyl)pyrazin-2-yl)amino)-7-azabicyclo[2.2.1]heptan-7-yl)methanone] | – | > 10 µM | > 10 µM | – | –
16 | COc1c(F)cccc1C(=O)N1C2CCC1C(Nc1nc(C)cc(C)n1)C2 (centres unmarked) [Example 261, (2-((4,6-dimethylpyrimidin-2-yl)amino)-7-azabicyclo[2.2.1]heptan-7-yl)(3-fluoro-2-methoxyphenyl)methanone] | – | 5 µM | > 10 µM | – | –
17 | O=C(c1cccc(F)c1-c1ccnnc1)N1[C@@H]2CC[C@H]1[C@H](Nc1cnc(C(F)(F)F)cn1)C2 [Example 264, (3-fluoro-2-(pyridazin-4-yl)phenyl)((1S,2R,4R)-2-((5-(trifluoromethyl)pyrazin-2-yl)amino)-7-azabicyclo[2.2.1]heptan-7-yl)methanone] | – | > 10 µM | 1.4 µM | – | –
18 | Cc1cccc(C(=O)N2[C@@H]3CC[C@H]2[C@H](Nc2cnc(C(F)(F)F)cn2)C3)c1-c1ncco1 [Example 266, (3-methyl-2-(oxazol-2-yl)phenyl)((1S,2R,4R)-2-((5-(trifluoromethyl)pyrazin-2-yl)amino)-7-azabicyclo[2.2.1]heptan-7-yl)methanone] | – | 0.121 µM | 0.005 µM | – | –
19 | O=C(c1cccc(F)c1-c1ccncc1)N1[C@@H]2CC[C@H]1[C@H](Nc1cnc(C(F)(F)F)cn1)C2 [Example 268, (3-fluoro-2-(pyridin-4-yl)phenyl)((1S,2R,4R)-2-((5-(trifluoromethyl)pyrazin-2-yl)amino)-7-azabicyclo[2.2.1]heptan-7-yl)methanone] | – | 3.7 µM | 0.45 µM | – | –
20 | O=C(c1cccc(F)c1-c1ncccn1)N1[C@@H]2CC[C@H]1[C@H](Nc1nccn3c(Br)cnc13)C2 [Example 270, ((1S,2R,4R)-2-((3-bromoimidazo[1,2-a]pyrazin-8-yl)amino)-7-azabicyclo[2.2.1]heptan-7-yl)(3-fluoro-2-(pyrimidin-2-yl)phenyl)methanone] | – | 0.145 µM | 0.325 µM | – | –
21 | O=C(c1cccc(F)c1-c1ncccn1)N1[C@@H]2CC[C@H]1[C@H](Nc1nccn3c(C(F)(F)F)nnc13)C2 [Example 274] | – | 2.56 µM | > 10 µM | – | –
22 | COC(=O)c1cnc(N[C@@H]2C[C@H]3CC[C@@H]2N3C(=O)c2cccc(F)c2-c2ncccn2)cn1 [Example 275, methyl 5-(((1S,2R,4R)-7-(3-fluoro-2-(pyrimidin-2-yl)benzoyl)-7-azabicyclo[2.2.1]heptan-2-yl)amino)pyrazine-2-carboxylate] | – | > 10 µM | > 10 µM | – | –
23 | O=C(c1cccc(F)c1I)N1[C@@H]2CC[C@H]1[C@H](Nc1ncc(C(F)(F)F)cn1)C2 [Example 277, (3-fluoro-2-iodophenyl)((1S,2R,4R)-2-((5-(trifluoromethyl)pyrimidin-2-yl)amino)-7-azabicyclo[2.2.1]heptan-7-yl)methanone] | – | 7.4 µM | 0.457 µM | – | –
24 | CN(c1cnc(C(F)(F)F)cn1)[C@@H]1C[C@H]2CC[C@@H]1N2C(=O)c1cccc(F)c1-c1ncccn1 [Example 282, (3-fluoro-2-(pyrimidin-2-yl)phenyl)((1S,2R,4R)-2-(methyl(5-(trifluoromethyl)pyrazin-2-yl)amino)-7-azabicyclo[2.2.1]heptan-7-yl)methanone] | – | > 10 µM | 0.486 µM | – | –
25 | CCOc1ccc(C)nc1C(=O)N1[C@@H]2CC[C@H]1[C@H](Nc1cnc(C(F)(F)F)cn1)C2 [Example 287, (3-ethoxy-6-methylpyridin-2-yl)((1S,2R,4R)-2-((5-(trifluoromethyl)pyrazin-2-yl)amino)-7-azabicyclo[2.2.1]heptan-7-yl)methanone] | – | 0.767 µM | 0.472 µM | – | –
26 | COc1cccc(-c2c(C)cnn2C)c1C(=O)N1[C@@H]2CC[C@H]1[C@H](Nc1cnc(C(F)(F)F)cn1)C2 [Example 292, (2-(1,4-dimethyl-1H-pyrazol-5-yl)-6-methoxyphenyl)((1S,2R,4R)-2-((5-(trifluoromethyl)pyrazin-2-yl)amino)-7-azabicyclo[2.2.1]heptan-7-yl)methanone] | – | > 10 µM | > 10 µM | – | –
27 | O=C(c1cccc(F)c1-c1ncccn1)N1[C@H]2CC[C@@H]1[C@@H](Nc1cnc(C(F)(F)F)cn1)C2 [Example 297, (3-fluoro-2-(pyrimidin-2-yl)phenyl)((1R,2S,4S)-2-((5-(trifluoromethyl)pyrazin-2-yl)amino)-7-azabicyclo[2.2.1]heptan-7-yl)methanone] | – | > 10 µM | > 10 µM | – | –
